Target: T1, Receptor-interacting serine/threonine-protein kinase 1 (Homo sapiens, UniProt Q13546)
T1 sequence (Q13546 whole entry): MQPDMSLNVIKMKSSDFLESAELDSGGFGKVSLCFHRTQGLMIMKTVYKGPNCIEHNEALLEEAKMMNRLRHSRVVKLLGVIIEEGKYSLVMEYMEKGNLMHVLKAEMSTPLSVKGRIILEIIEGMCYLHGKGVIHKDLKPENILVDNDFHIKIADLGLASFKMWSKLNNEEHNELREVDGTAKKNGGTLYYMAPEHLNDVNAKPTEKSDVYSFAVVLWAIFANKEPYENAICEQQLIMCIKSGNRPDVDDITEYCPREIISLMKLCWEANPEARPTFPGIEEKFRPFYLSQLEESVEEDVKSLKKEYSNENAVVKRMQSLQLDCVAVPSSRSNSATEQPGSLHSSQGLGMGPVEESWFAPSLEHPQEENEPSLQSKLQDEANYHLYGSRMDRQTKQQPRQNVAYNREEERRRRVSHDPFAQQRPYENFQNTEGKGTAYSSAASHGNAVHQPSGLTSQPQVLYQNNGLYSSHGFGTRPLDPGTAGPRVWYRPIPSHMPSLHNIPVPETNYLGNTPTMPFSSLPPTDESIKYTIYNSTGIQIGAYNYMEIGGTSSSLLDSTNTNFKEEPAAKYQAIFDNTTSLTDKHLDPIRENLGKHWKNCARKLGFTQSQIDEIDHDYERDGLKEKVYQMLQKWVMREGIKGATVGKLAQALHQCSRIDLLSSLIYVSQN
Test: Inhibitory Activity Assay
Protocol: The compound of the present invention and the control compound were dissolved in the assay buffer (50 mM Hepes pH 7.5, 50 mM NaCl, 30 mM MgCl2, 1 mM DTT, 0.02% CHAPS, 0.5 mg/mL BSA), and diluted in a ratio of 1:1.5 using a 22-point titration (high concentration 2 μM), and then added to a 384-well plate. […] After completion of the reaction, 5 μL of ADP-Glo reagent containing 0.02% CHAPS was added to each well and incubated at room temperature for 1 h to terminate the kinase reaction and use up all remaining ATP. Then, 5 μL of ADP-Glo detection solution containing 0.02% CHAPS was added to each well and incubated at room temperature for 30 min to measure the emittance intensity.

| Structure (SMILES) | IC50 [nM] |
| --- | --- |
| C[C@H]1Oc2ccc(C#CCN3CCN(CC#CC#CCN4CCN(CC#Cc5ccc6c(c5)N(C)C(=O)[C@@H](NC(=O)c5n[nH]c(Cc7ccccc7)n5)[C@@H](C)O6)CC4)CC3)cc2N(C)C(=O)[C@H]1NC(=O)c1n[nH]c(Cc2ccccc2)n1 [US20240270732, Compound I-91] | 4.36 |
| COCCOCCOCCOCCOCC#Cc1ccc2c(c1)N(C)C(=O)[C@@H](NC(=O)c1n[nH]c(Cc3ccccc3)n1)[C@@H](C)O2 [US20240270732, Compound I-99] | 2.39 |
| C[C@H]1Oc2ccc(C#CCN3CCN(CC#Cc4ccc5c(c4)N(C)C(=O)[C@@H](NC(=O)c4ncn(Cc6ccccc6)n4)[C@@H](C)O5)CC3)cc2N(C)C(=O)[C@H]1NC(=O)c1cn(Cc2ccccc2)cn1 [US20240270732, Compound I-27] | 4 |
| C#CCN1CCN(CC#Cc2ccc3c(c2)N(C)C(=O)[C@@H](NC(=O)c2n[nH]c(Cc4ccccc4)n2)[C@H](C)O3)CC1 [US20240270732, Compound I-18] | 57.7 |
| C#CCN1CCN(CC#Cc2ccc3c(c2)N(C)C(=O)[C@@H](NC(=O)c2nnn(Cc4ccccc4)n2)CO3)CC1 [US20240270732, Compound I-57] | 8.09 |
| C#CCN1CCN(CC#Cc2ccc3c(c2)N(C)C(=O)[C@@H](NC(=O)c2n[nH]c(Cc4ccccc4)n2)CO3)CC1 [US20240270732, Compound I-10] | 3.21 |
| C[C@H]1Oc2ccc(C#CCN3CCN(CC#Cc4ccc5c(c4)N(C)C(=O)[C@@H](NC(=O)c4cn(Cc6ccccc6)cn4)CO5)CC3)cc2N(C)C(=O)[C@H]1NC(=O)c1ncn(Cc2ccccc2)n1 [US20240270732, Compound I-28] | 4.59 |
| C#CCN1CCN(CC#Cc2ccc3c(c2)N(C)C(=O)[C@@H](NC(=O)c2ncc(Cc4ccccc4)o2)[C@@H](C)O3)CC1 [US20240270732, Compound I-43] | 12.7 |
| C[C@H]1Oc2ccc(C#CCN3CCN(CC#Cc4ccc5c(c4)N(C)C(=O)[C@@H](NC(=O)c4ncn(Cc6ccccc6)n4)[C@@H](C)O5)CC3)cc2N(C)C(=O)[C@H]1NC(=O)c1ncn(Cc2ccccc2)n1 [US20240270732, Compound I-23] | 4.66 |
| C#CCN1CCN(CC#Cc2ccc3c(c2)N(C)C(=O)[C@@H](NC(=O)c2ncn(Cc4ccccc4)n2)[C@@H](C)O3)CC1 [US20240270732, Compound I-37] | 4.17 |
| C[C@H]1Oc2ccc(C#CCN3CCN(CC#CC#CCN4CCN(CC#Cc5ccc6c(c5)N(C)C(=O)[C@@H](NC(=O)c5ncn(Cc7ccccc7)n5)[C@@H](C)O6)CC4)CC3)cc2N(C)C(=O)[C@H]1NC(=O)c1ncn(Cc2ccccc2)n1 [US20240270732, Compound I-93] | 5.73 |
| C#CCN1CCN(CC#Cc2ccc3c(c2)N(C)C(=O)[C@@H](NC(=O)c2cn(Cc4ccccc4)cn2)[C@@H](C)O3)CC1 [US20240270732, Compound I-59] | 10.2 |
| C[C@H]1Oc2ccc(C#CCN3CCN(CC#Cc4ccc5c(c4)N(C)C(=O)[C@@H](NC(=O)c4ncn(Cc6ccccc6)n4)[C@@H](C)O5)CC3)cc2N(C)C(=O)[C@H]1NC(=O)c1n[nH]c(Cc2ccccc2)n1 [US20240270732, Compound I-4] | 6.68 |
| C#CCN1CCN(CC#Cc2ccc3c(c2)N(C)C(=O)[C@@H](NC(=O)c2n[nH]c(Cc4cccc(N)c4)n2)[C@@H](C)O3)CC1 [US20240270732, Compound I-71] | 23.9 |
| C#CCN1CCN(CC#Cc2ccc3c(c2)N(C)C(=O)[C@@H](NC(=O)c2n[nH]c(Cc4ccccc4)n2)[C@@H](C)O3)CC1 [US20240270732, Compound I-14] | 4.79 |
| C#CCN1CCN(CC#Cc2ccc3c(c2)N(C)C(=O)[C@@H](NC(=O)c2ncn(Cc4ccccc4)n2)CO3)CC1 [US20240270732, Compound I-29] | 2.88 |
| C#CCN1CCN(CC#Cc2ccc3c(c2)N(C)C(=O)[C@@H](NC(=O)c2nnc(Cc4ccccc4)o2)[C@@H](C)O3)CC1 [US20240270732, Compound I-49] | 16.2 |
| C#CCN1CCN(CC#Cc2ccc3c(c2)N(C)C(=O)[C@@H](NC(=O)c2ncn(Cc4cccnc4)n2)[C@@H](C)O3)CC1 [US20240270732, Compound I-73] | 19.1 |

The remaining lines, values ahead:

| IC50 [nM] | Structure (SMILES) |
| --- | --- |
| 7.44 | C[C@H]1Oc2ccc(C#CCN3CCN(CC#Cc4ccc5c(c4)N(C)C(=O)[C@@H](NC(=O)c4nnn(Cc6ccccc6)n4)[C@@H](C)O5)CC3)cc2N(C)C(=O)[C@H]1NC(=O)c1nnn(Cc2ccccc2)n1 [US20240270732, Compound I-56] |
| 22.1 | C[C@H]1Oc2ccc(C#CCN3CCN(CC#Cc4ccc5c(c4)N(C)C(=O)[C@@H](NC(=O)c4n[nH]c(Cc6cccc(N)c6)n4)[C@@H](C)O5)CC3)cc2N(C)C(=O)[C@H]1NC(=O)c1n[nH]c(Cc2cccc(N)c2)n1 [US20240270732, Compound I-72] |
| 17.5 | C[C@H]1Oc2ccc(C#CCN3CCN(CC#Cc4ccc5c(c4)N(C)C(=O)[C@@H](NC(=O)c4ncn(Cc6cccnc6)n4)[C@@H](C)O5)CC3)cc2N(C)C(=O)[C@H]1NC(=O)c1ncn(Cc2cccnc2)n1 [US20240270732, Compound I-74] |
| 19.8 | C[C@H]1Oc2ccc(C#CCCCN(C)CCCC#Cc3ccc4c(c3)N(C)C(=O)[C@@H](NC(=O)c3n[nH]c(Cc5ccccc5)n3)[C@@H](C)O4)cc2N(C)C(=O)[C@H]1NC(=O)c1n[nH]c(Cc2ccccc2)n1 [US20240270732, Compound I-95] |
| 13.3 | C[C@H]1Oc2ccc(C#CCN3CCN(CC#Cc4ccc5c(c4)N(C)C(=O)[C@@H](NC(=O)c4cnn(Cc6ccccc6)c4)[C@@H](C)O5)CC3)cc2N(C)C(=O)[C@H]1NC(=O)c1cnn(Cc2ccccc2)c1 [US20240270732, Compound I-48] |
| 4.73 | C[C@H]1Oc2ccc(C#Cc3ccncc3)cc2N(C)C(=O)[C@H]1NC(=O)c1ncn(Cc2ccccc2)n1 [US20240270732, Compound I-110] |
| 14.3 | C[C@H]1Oc2ccc(C#CCN3CCN(CC#Cc4ccc5c(c4)N(C)C(=O)[C@@H](NC(=O)c4nnc(Cc6ccccc6)o4)[C@@H](C)O5)CC3)cc2N(C)C(=O)[C@H]1NC(=O)c1nnc(Cc2ccccc2)o1 [US20240270732, Compound I-50] |
| 10.8 | C#Cc1ccc2c(c1)N(C)C(=O)[C@@H](NC(=O)c1ncn(Cc3ccccc3)n1)[C@@H](C)O2 [US20240270732, Compound I-120] |
| 3.22 | CN1C(=O)[C@@H](NC(=O)c2n[nH]c(Cc3ccccc3)n2)COc2ccc(C#CCN3CCN(CC#Cc4ccc5c(c4)N(C)C(=O)[C@@H](NC(=O)c4ncn(Cc6ccccc6)n4)CO5)CC3)cc21 [US20240270732, Compound I-13] |
| 19.9 | C[C@H]1Oc2ccc(C#CCCCCC(=O)O)cc2N(C)C(=O)[C@H]1NC(=O)c1n[nH]c(Cc2ccccc2)n1 [US20240270732, Compound I-107] |
| 6.63 | C#CCOCCOCCOCCOCCOCC#Cc1ccc2c(c1)N(C)C(=O)[C@@H](NC(=O)c1ncn(Cc3ccccc3)n1)CO2 [US20240270732, Compound I-85-2] |
| 8.07 | CN1C(=O)[C@@H](NC(=O)c2cn(Cc3ccccc3)cn2)COc2ccc(C#CCN3CCN(CC#Cc4ccc5c(c4)N(C)C(=O)[C@@H](NC(=O)c4cn(Cc6ccccc6)cn4)CO5)CC3)cc21 [US20240270732, Compound I-62] |
| 62.2 | C[C@@H]1Oc2ccc(C#CCN3CCN(CC#Cc4ccc5c(c4)N(C)C(=O)[C@@H](NC(=O)c4cn(Cc6ccccc6)cn4)[C@H](C)O5)CC3)cc2N(C)C(=O)[C@H]1NC(=O)c1cn(Cc2ccccc2)cn1 [US20240270732, Compound I-64] |
| 6.6 | CN1C(=O)[C@@H](NC(=O)c2n[nH]c(Cc3ccccc3)n2)COc2ccc(C#CCOCCOCCOCCOCCOCC#Cc3ccc4c(c3)N(C)C(=O)[C@@H](NC(=O)c3n[nH]c(Cc5ccccc5)n3)CO4)cc21 [US20240270732, Compound I-82-1] |
| 7.99 | C[C@H]1Oc2ccc(C#Cc3cccc([N+](=O)[O-])c3)cc2N(C)C(=O)[C@H]1NC(=O)c1ncn(Cc2ccccc2)n1 [US20240270732, Compound I-116] |
| 8.18 | C[C@H]1Oc2ccc(C#CCOCCOCCOCCOCCOCC#Cc3ccc4c(c3)N(C)C(=O)[C@@H](NC(=O)c3n[nH]c(Cc5ccccc5)n3)CO4)cc2N(C)C(=O)[C@H]1NC(=O)c1n[nH]c(Cc2ccccc2)n1 [US20240270732, Compound I-83] |
| 13.8 | C[C@H]1Oc2ccc(C#Cc3cccc(N)c3)cc2N(C)C(=O)[C@H]1NC(=O)c1ncn(Cc2ccccc2)n1 [US20240270732, Compound I-118] |
| 17 | CN(CCCC#Cc1ccc2c(c1)N(C)C(=O)[C@@H](NC(=O)c1ncn(Cc3ccccc3)n1)CO2)CCCC#Cc1ccc2c(c1)N(C)C(=O)[C@@H](NC(=O)c1ncn(Cc3ccccc3)n1)CO2 [US20240270732, Compound I-98] |
| 22.4 | C[C@H]1Oc2ccc(C#CCN3CCN(CC#Cc4ccc5c(c4)N(C)C(=O)[C@@H](NC(=O)c4ncn(Cc6cccc(O)c6)n4)[C@@H](C)O5)CC3)cc2N(C)C(=O)[C@H]1NC(=O)c1ncn(Cc2cccc(O)c2)n1 [US20240270732, Compound I-76] |

Reference: BindingDB's records for patent US20240270732 (Chengdu Biobel Biotechnology Co., 2024)
